The values below come from patent US20240190855A1 (Relay Therapeutics, Inc., priority 2021, published 2024).

Structures are written as SMILES.

This experiment deals with T1, CDK2/Cyclin E complex (Homo sapiens, UniProt P24941).
T1 construct: purchased Eurofins 14-475
The experiment can be described thus: CDK2/Cyclin E fluorescence-based microfluidic mobility shift assay (CDK2 Biochemical Caliper Assay). The conditions noted are these: read-out: Biochemical CDK2/CyclinE Caliper IC50. As to the method: Compounds of the present disclosure were tested in a CDK2/Cyclin E fluorescence-based microfluidic mobility shift assay (PerkinElmer).
The active wild type CDK2/Cyclin E complex was purchased from Eurofins (14-475). Compound stocks were prepared in DMSO and were serially diluted into 11 concentrations by 3-fold dilution. […] Compounds were incubated in the presence of CDK2/Cyclin E complex and ATP for 30 minutes at room temperature. Catalytic reaction was initiated with the addition of 5 uL of a 4× peptide solution containing 6 uM fluorescently label substrate peptide, FL Peptide 18 (aa sequence 5-FAM-QSPKKG, PerkinElmer, 760362) in 1× reaction buffer.
The final reaction components were 0.1 nM CDK2/Cyclin E, 2000 uM ATP and 1.5 uM FL Peptide 18 and 1% DMSO. Reactions were incubated RT for 20 hr and terminated with 75 uL of a stopping solution containing 0.5 M EDTA. Samples were analyzed using a LabChip EZ reader (PerkinElmer).
Turning to `Cc1cc(CC(=O)Nc2cc([C@H]3CC[C@@H](CC(=O)O)C3)[nH]n2)on1` (single isomer, unassigned) [Example 341], the IC50 was 1000 to 100000 nM.
For `Cc1cc(CC(=O)Nc2cc([C@@H]3CC[C@H](CC(=O)O)C3)[nH]n2)on1` (single isomer, unassigned) [Example 342], the IC50 lay within 1000 to 100000 nM.
The value for `Cc1cc(CC(=O)Nc2cc([C@H]3CC[C@H](CC(=O)O)C3)[nH]n2)on1` (single isomer, unassigned) [Example 343] was 1000 to 100000 nM.
The value for `Cc1cc(CC(=O)Nc2cc([C@@H]3CC[C@@H](CC(=O)O)C3)[nH]n2)on1` (single isomer, unassigned) [Example 344] was 1000 to 100000 nM.
The value for `Cc1cc(CC(=O)Nc2cc([C@@H]3C[C@H](OC(=O)NC(C)C)CO3)[nH]n2)on1` (single isomer, unassigned) [Example 345] was 100 to 250 nM; that for `Cc1cc(CC(=O)Nc2cc([C@H]3C[C@@H](OC(=O)NC(C)C)CO3)[nH]n2)on1` (single isomer, unassigned) [Example 346] was 100 to 250 nM.
With `Cc1cc(CC(=O)Nc2cc([C@@H]3CC[C@H](n4cc(C)[nH]c4=O)C3)[nH]n2)on1` (single isomer, unassigned) [Example 349], the IC50 was in the range of 250 to 1000 nM.
The value for `Cc1cc(CC(=O)Nc2cc([C@@H]3CC[C@H](Oc4ccccc4)C3)[nH]n2)on1` (single isomer, unassigned) [Example 350] was 1000 to 100000 nM; that for `Cc1cc(CC(=O)Nc2cc([C@H]3CC[C@@H](Oc4ccccc4)C3)[nH]n2)on1` (single isomer, unassigned) [Example 351] was 100 to 250 nM; that for `Cc1cc(CC(=O)Nc2cc([C@H]3CC[C@@H](OC(=O)CC(C)C)C3)[nH]n2)on1` (single isomer, unassigned) [Example 352] was ≤ 100 nM.
Regarding `Cc1cc(CC(=O)Nc2cc([C@@H]3CC[C@H](OC(=O)CC(C)C)C3)[nH]n2)on1` (single isomer, unassigned) [Example 353], the IC50 is ≤ 100 nM.
As for `Cc1cncc(O[C@H]2CC[C@@H](c3cc(NC(=O)Cc4cc(C)no4)n[nH]3)C2)c1` (single isomer, unassigned) [Example 354], the IC50 was 1000 to 100000 nM.
With `Cc1cncc(O[C@@H]2CC[C@H](c3cc(NC(=O)Cc4cc(C)no4)n[nH]3)C2)c1` (single isomer, unassigned) [Example 355] the figure was 250 to 1000 nM.
The value for `Cc1ccc(O[C@H]2CC[C@@H](c3cc(NC(=O)Cc4cc(C)no4)n[nH]3)C2)cn1` (single isomer, unassigned) [Example 356] was 250 to 1000 nM; that for `Cc1ccc(O[C@@H]2CC[C@H](c3cc(NC(=O)Cc4cc(C)no4)n[nH]3)C2)cn1` (single isomer, unassigned) [Example 357] was 1000 to 100000 nM; that for `Cc1cc(CC(=O)Nc2cc([C@@H]3CC[C@H](Oc4cccnc4C)C3)[nH]n2)on1` (single isomer, unassigned) [Example 358] was 250 to 1000 nM.
With `Cc1cc(CC(=O)Nc2cc([C@H]3CC[C@@H](Oc4cccnc4C)C3)[nH]n2)on1` (single isomer, unassigned) [Example 359] the figure was 100 to 250 nM; with `Cc1cc(CC(=O)Nc2cc([C@H]3CC[C@@H](Oc4cncnc4)C3)[nH]n2)on1` (single isomer, unassigned) [Example 362], 1000 to 100000 nM.
For `Cc1cc(CC(=O)Nc2cc([C@@H]3CC[C@H](Oc4cncnc4)C3)[nH]n2)on1` (single isomer, unassigned) [Example 363], the IC50 was in the range of 250 to 1000 nM.
With `COCc1cc(C(=O)Nc2cc([C@H]3CC[C@@H](Oc4ccccc4)C3)[nH]n2)n(C)n1` (single isomer, unassigned) [Example 364] the figure was 1000 to 100000 nM; with `COCc1cc(C(=O)Nc2cc([C@@H]3CC[C@H](Oc4ccccc4)C3)[nH]n2)n(C)n1` (single isomer, unassigned) [Example 365], 250 to 1000 nM.
As to `COCc1cc(C(=O)Nc2cc([C@H]3CC[C@@H](Oc4cnccc4C)C3)[nH]n2)n(C)n1` (single isomer, unassigned) [Example 366], the IC50 lay within 1000 to 100000 nM.
The value for `COCc1cc(C(=O)Nc2cc([C@@H]3CC[C@H](Oc4cnccc4C)C3)[nH]n2)n(C)n1` (single isomer, unassigned) [Example 367] was 100 to 250 nM; that for `Cc1cc(CC(=O)Nc2cc([C@H]3CC[C@@H](Cc4nncn4C(C)C)C3)[nH]n2)on1` (single isomer, unassigned) [Example 370] was 1000 to 100000 nM.
The value for `Cc1cc(CC(=O)Nc2cc([C@@H]3CC[C@H](Cc4nncn4C(C)C)C3)[nH]n2)on1` (single isomer, unassigned) [Example 371] was 1000 to 100000 nM; that for `Cc1cc(CC(=O)Nc2cc([C@@H]3CC[C@@H](Cc4nncn4C(C)C)C3)[nH]n2)on1` (single isomer, unassigned) [Example 372] was 1000 to 100000 nM.
`Cc1cc(CC(=O)Nc2cc([C@H]3CC[C@H](Cc4nncn4C(C)C)C3)[nH]n2)on1` (single isomer, unassigned) [Example 373]: the IC50 lay within 100 to 250 nM.
Regarding `CC(C)NC(=O)O[C@@H]1CC[C@H](c2cc(NC(=O)CN(C)c3ncnc4nc[nH]c34)n[nH]2)C1` (single isomer, unassigned) [Example 374], the IC50 lay within 100 to 250 nM.
Take `CC(C)NC(=O)O[C@H]1CC[C@@H](c2cc(NC(=O)CN(C)c3ncnc4nc[nH]c34)[nH]n2)C1` (single isomer, unassigned) [Example 375]: the IC50 was ≤ 100 nM.
As to `Cc1cc(CC(=O)Nc2cc([C@@H]3CC[C@@H](O)C3)[nH]n2)on1` (single isomer, unassigned) [Example 376], the IC50 was in the range of 1000 to 100000 nM.
Consider `Cc1cc(CC(=O)Nc2cc([C@H]3CC[C@H](O)C3)[nH]n2)on1` (single isomer, unassigned) [Example 377], for which the IC50 lay in the range of 1000 to 100000 nM.
With `Cc1cc(CC(=O)Nc2cc([C@@H]3CC[C@H](n4cc(C(C)C)[nH]c4=O)C3)[nH]n2)on1` (single isomer, unassigned) [Example 378] the figure was 1000 to 100000 nM; with `Cc1cc(CC(=O)Nc2cc([C@@H]3CC[C@H](Oc4cnccc4C)C3)[nH]n2)on1` (single isomer, unassigned) [Example 379], 250 to 1000 nM.
With `Cc1cc(CC(=O)Nc2cc([C@H]3CC[C@@H](Oc4cnccc4C)C3)[nH]n2)on1` (single isomer, unassigned) [Example 380] the figure was 100 to 250 nM; with `Cc1cc(CC(=O)Nc2cc([C@H]3CC[C@@H](Oc4cnccc4C4CC4)C3)[nH]n2)on1` (single isomer, unassigned) [Example 381], ≤ 100 nM; with `Cc1cc(CC(=O)Nc2cc([C@@H]3CC[C@H](Oc4cnccc4C4CC4)C3)[nH]n2)on1` (single isomer, unassigned) [Example 382], 250 to 1000 nM.
The value for `COCc1cc(C(=O)Nc2cc([C@H]3CC[C@@H](Oc4cncc(C)c4)C3)[nH]n2)n(C)n1` (single isomer, unassigned) [Example 383] was 1000 to 100000 nM.
For `COCc1cc(C(=O)Nc2cc([C@@H]3CC[C@H](Oc4cncc(C)c4)C3)[nH]n2)n(C)n1` (single isomer, unassigned) [Example 384], the IC50 was 1000 to 100000 nM.
With `COCc1cc(C(=O)Nc2cc([C@H]3CC[C@@H](Oc4cccnc4C)C3)[nH]n2)n(C)n1` (single isomer, unassigned) [Example 385] the figure was 1000 to 100000 nM.
With `COCc1cc(C(=O)Nc2cc([C@@H]3CC[C@H](Oc4cccnc4C)C3)[nH]n2)n(C)n1` (single isomer, unassigned) [Example 386] the figure was 250 to 1000 nM.
With `COCc1cc(C(=O)Nc2cc([C@H]3CC[C@@H](Oc4cncnc4)C3)[nH]n2)n(C)n1` (single isomer, unassigned) [Example 387] the figure was 1000 to 100000 nM; with `COCc1cc(C(=O)Nc2cc([C@@H]3CC[C@H](Oc4cncnc4)C3)[nH]n2)n(C)n1` (single isomer, unassigned) [Example 388], 1000 to 100000 nM; with `Cc1cc(CC(=O)Nc2cc([C@H]3CC[C@@H](Oc4ccccc4C(C)C)C3)[nH]n2)on1` (single isomer, unassigned) [Example 389], 250 to 1000 nM.
As for `Cc1cc(CC(=O)Nc2cc([C@@H]3CC[C@H](Oc4ccccc4C(C)C)C3)[nH]n2)on1` (single isomer, unassigned) [Example 390], the IC50 lay within 100 to 250 nM.
The value for `COCc1cc(C(=O)Nc2cc([C@H]3CC[C@@H](Oc4cnccc4C4CC4)C3)[nH]n2)n(C)n1` (single isomer, unassigned) [Example 393] was ≤ 100 nM; that for `COCc1cc(C(=O)Nc2cc([C@@H]3CC[C@H](Oc4cnccc4C4CC4)C3)[nH]n2)n(C)n1` (single isomer, unassigned) [Example 394] was 100 to 250 nM.
With `COCc1cc(C(=O)Nc2cc([C@H]3CC[C@@H](Oc4ccc(C)nc4)C3)[nH]n2)n(C)n1` (single isomer, unassigned) [Example 395] the figure was 1000 to 100000 nM; with `COCc1cc(C(=O)Nc2cc([C@@H]3CC[C@H](Oc4ccc(C)nc4)C3)[nH]n2)n(C)n1` (single isomer, unassigned) [Example 396], 1000 to 100000 nM; with `COCc1nc2ccnc(Nc3cc([C@H]4CC[C@@H](OC(=O)NC(C)C)C4)[nH]n3)c2s1` (single isomer, unassigned) [Example 398], ≤ 100 nM.
With `COCc1nc2ccnc(Nc3cc([C@@H]4CC[C@H](OC(=O)NC(C)C)C4)[nH]n3)c2s1` (single isomer, unassigned) [Example 399] the figure was ≤ 100 nM.
